Reference: patent publication US8518952B2, “6 substituted 2-heterocyclylamino pyrazine compounds as CHK-1 inhibitors” (Pfizer Inc., priority 2008, dated 2013)
Where a name gives a salt, the structure may show the parent alone.

Columns and labels:
Mia Paca-2 cells = experiment: Histone H3 (Ser10) phosphorylation ELISA, abrogation of camptothecin-induced G2 arrest (CHK-1 cellular assay); assay type: cell-based; conditions: camptothecin 8 hrs, then compound with nocodozole 16 hours
Experimental: The Histone H3 phosphorylation ELISA assay detects cells entering mitosis and represents the primary in vitro cell-based assay used to measure the cellular potency of compounds in abrogating the G2 check point induced by DNA damage in HeLa cells or MiaPaCa cells. The candidate substances were assayed for potency in their ability to inhibit camptothecin-induced G2 arrest, as measured by an increase in Histone H3 phosphorylation on Ser10, a marker of entry into mitosis.
The PathScan Phospho-Histone H3 (Ser10) Sandwich ELISA kit was used (Cell Signaling, #7155) and the assay was performed according to manufacturer recommendations. Tissue culture plates were seeded with HeLa cells or MiaPaCa Cells and allowed to attach overnight. The cells were then treated with camptothecin to induce DNA damage for 8 hrs. Candidate substances or diluent were then added in the presence of nocodozole for 16 hours. Cells were then lysed with buffer from Assay Designs (#80-1114) supplemented with protease inhibitors and frozen overnight. The fresh whole cell lysates were then thawed and added to the ELISA plate with shaking for 3 hours. Between all subsequent steps plates were washed 4 times with PBST. Biotinylated phospho Histone H3 (ser10) detection antibody was added for 1 hour, followed by addition of horseradish peroxidase-linked streptavidin secondary antibody for 1 hour. Color development of the antibody was performed with addition of TMB substrate and incubation for 2 minutes on a plate shaker. Stop solution was added and plates were read with absorbance at 450 nm on a spectrophotometer. EC50 values were calculated by sigmoid curve fitting using a four-parameter analysis.
Under the “Ki” column, data entries in the format of “%” are percent inhibition data where no Ki data is available. Data entry under the “EC50” column with an * are data obtained using Mia Paca-2 cells rather than HeLa cells. Data is not available where noted as n/a.

CHK1 (kinase domain) = biological target: T1, CHK1 (kinase domain) (Homo sapiens, UniProt O14757); experiment: CHK1 Ki determination, spectrophotometric coupled (pyruvate kinase/lactate dehydrogenase) assay; assay type: biochemical; conditions: CHK-1 kinase domain; for Ki: 150 uM ATP, 125 uM Syntide 2; for percent inhibition (where no Ki data is available): inhibitor concentration not given
T1 construct: a solution containing 1 nM of CHK1 (kinase domain)
T1 sequence (O14757 9-265 limits assumed): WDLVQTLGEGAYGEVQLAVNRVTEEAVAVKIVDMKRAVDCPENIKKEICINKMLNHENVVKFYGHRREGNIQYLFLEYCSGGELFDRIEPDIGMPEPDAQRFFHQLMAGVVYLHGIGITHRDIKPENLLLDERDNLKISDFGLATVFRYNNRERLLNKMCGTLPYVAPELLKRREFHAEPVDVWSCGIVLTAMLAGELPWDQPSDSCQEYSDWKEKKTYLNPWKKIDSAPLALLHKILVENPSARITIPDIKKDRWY
Outline: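 The CHK1 kinase domain was pre-incubated with compound for 15 min, and the reaction was started with 125 uM Syntide 2 and 150 uM ATP. ADP formation was coupled through pyruvate kinase/lactate dehydrogenase to NADH oxidation, read as the A340 decrease. Kiapp was fitted with a tight-binding equation that accounts for enzyme concentration and ATP Km; some entries are % inhibition.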

HeLa cells = experiment: Histone H3 (Ser10) phosphorylation ELISA, abrogation of camptothecin-induced G2 arrest (CHK-1 cellular assay); assay type: cell-based; conditions: Homo sapiens, HeLa, HeLa cells; camptothecin 8 hrs, then compound with nocodozole 16 hours; read-out: EC50
Outline: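 HeLa cells, or MiaPaCa-2 where marked, received camptothecin for 8 h, then compound with nocodazole for 16 h. Ser10-phosphorylated histone H3 in lysates was measured by ELISA with a biotinylated antibody, streptavidin-HRP and TMB. EC50 came from four-parameter sigmoid fits.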

[1] = Homo sapiens, Mia Paca-2 cells (entries marked *)
[2] = Homo sapiens, MIA PaCa-2, Mia Paca-2 cells (entries marked *)

Structure (SMILES) | EC50 (Mia Paca-2 cells; [1]) [nM] | Ki (CHK1 (kinase domain)) [nM] | other results
OC[C@@H]1C[C@@H](Nc2cncc(-c3cnc4ccccn34)n2)CN1 [Example 238, [(2S,4R)-4-{[6-(imidazo[1,2-a]pyridin-3-yl)pyrazin-2-yl]amino}pyrrolidin-2-yl]methanol] | 87.1 | 4.9 | 
c1ncc(-n2cnc3cnc(N4CCOCC4)cc32)nc1N[C@@H]1CCCNC1 [Example 272, 6-[6-(morpholin-4-yl)-1H-imidazo[4,5-c]pyridin-1-yl]-N-[(3R)-piperidin-3-yl]pyrazin-2-amine] | 2010 | 40.8 | 
Cc1ccn2c(-c3cncc(N[C@H]4CN[C@H](COC(C)C)C4)n3)cnc2c1 [Example 240, 6-(7-methylimidazo[1,2-a]pyridin-3-yl)-N-{(3R,5S)-5-[(propan-2-yloxy)methyl]pyrrolidin-3-yl}pyrazin-2-amine] | 171 | 61.6 | 
Fc1cccn2ncc(-c3cncc(N[C@@H]4CCCNC4)n3)c12 [Example 199, 6-(4-fluoropyrazolo[1,5-a]pyridin-3-yl)-N-[(3R)-piperidin-3-yl]pyrazin-2-amine] | 106 | 7.82 | 
N#Cc1ccn2c(-c3cncc(N[C@@H]4CCCNC4)n3)cnc2c1 [Example 24, 3-{6-[(3R)-piperidin-3-ylamino]pyrazin-2-yl}imidazo[1,2-a]pyridine-7-carbonitrile] |  | 6.38 | EC50 (Mia Paca-2 cells; [2]): 178 nM
CC(C)c1cn2c(-c3cncc(N[C@@H]4CCCNC4)n3)cnc2s1 [Example 160, N-[(3R)-piperidin-3-yl]-6-[2-(propan-2-yl)imidazo[2,1-b][1,3]thiazol-5-yl]pyrazin-2-amine] | 25.7 | 1.07 | 
C[C@@H]1CCNC[C@@H]1Nc1cncc(-c2cnn3ccccc23)n1 [Example 206, N-[(3R,4R)-4-methylpiperidin-3-yl]-6-(pyrazolo[1,5-a]pyridin-3-yl)pyrazin-2-amine] | 240 | 48.2 | 
COc1ccc2c(-c3cncc(N[C@@H]4CCCNC4)n3)cnn2c1 [Example 33, 6-(6-methoxypyrazolo[1,5-a]pyridin-3-yl)-N-[(3R)-piperidin-3-yl]pyrazin-2-amine] | 7.27 | 1 | 
C[C@@H]1C[C@@H](Nc2cncc(-c3cnc4ccccn34)n2)CN1 [Example 144, 6-imidazo[1,2-a]pyridin-3-yl-N-[(3R,5R)-5-methylpyrrolidin-3-yl]pyrazin-2-amine] | 167 | 3.18 | 
C[C@@H]1CNC[C@@H]1Nc1cncc(-c2cnc3ccc(C(C)(C)O)cn23)n1 [Example 14, 2-[3-(6-{[(3R,4R)-4-methylpyrrolidin-3-yl]amino}pyrazin-2-yl)imidazo[1,2-a]pyridin-6-yl]propan-2-ol] | 4210 | 33.6 | 
COC[C@@H]1C[C@@H](Nc2cncc(-c3cnc4ccccn34)n2)CN1 [Example 157, 6-(imidazo[1,2-a]pyridin-3-yl)-N-[(3R,5S)-5-(methoxymethyl)pyrrolidin-3-yl]pyrazin-2-amine] | 73.3 | 21.7 | 
Cc1cn2c(-c3cncc(N[C@@H]4CCCNC4)n3)cnc2cn1 [Example 135, 6-(6-methylimidazo[1,2-a]pyrazin-3-yl)-N-[(3R)-piperidin-3-yl]pyrazin-2-amine] | 208 | 12.6 | 
Cc1nn2c(-c3cncc(N[C@@H]4CCCNC4)n3)cnc2s1 [Example 120, 6-(2-methylimidazo[2,1-b][1,3,4]thiadiazol-5-yl)-N-[(3R)-piperidin-3-yl]pyrazin-2-amine] | 686 | 34.3 | 
c1cn2c(-c3cncc(N[C@@H]4CCCNC4)n3)cnc2cn1 [Example 4, 6-Imidazo[1,2-a]pyrazin-3-yl-N-[(3R)-piperidin-3-yl]pyrazin-2-amine] | 92.8 | 7.74 | 
CC(C)OC[C@@H]1C[C@@H](Nc2cncc(-c3cnc4ccccn34)n2)CN1 [Example 158, 6-(imidazo[1,2-a]pyridin-3-yl)-N-{(3R,5S)-5-[(propan-2-yloxy)methyl]pyrrolidin-3-yl}pyrazin-2-amine] | 129 | 49.8 | 
COc1cc2c(cn1)ncn2-c1cncc(N[C@@H]2CCCNC2)n1 [Example 17, 6-(6-methoxy-1H-imidazo[4,5-c]pyridin-1-yl)-N-[(3R)-piperidin-3-yl]pyrazin-2-amine] | 59.5 | 6.41 | 
Clc1cc2ncn(-c3cncc(N[C@@H]4CCCNC4)n3)c2cn1 [Example 254, 6-(6-chloro-3H-imidazo[4,5-c]pyridin-3-yl)-N-[(3R)-piperidin-3-yl]pyrazin-2-amine] | 542 | 28.3 | 
CO[C@H]1CCNC[C@@H]1Nc1cncc(-c2cnc3ccccn23)n1 [Example 29, 6-imidazo[1,2-a]pyridin-3-yl-N-[(3S,4S)-4-methoxypiperidin-3-yl]pyrazin-2-amine] |  | 5.51 | EC50 (Mia Paca-2 cells; Mia Paca-2 cells (entries marked *)): 86.8 nM
C[C@@H]1CNC[C@@H]1Nc1cncc(-c2cnc3cc(Cl)ccn23)n1 [Example 129, 6-(7-chloroimidazo[1,2-a]pyridin-3-yl)-N-[(3R,4R)-4-methylpyrrolidin-3-yl]pyrazin-2-amine] | 10.8 | 0.929 | 
C[C@@H]1NCCC[C@H]1Nc1cncc(-c2cnc3ccc(C(F)(F)F)cn23)n1 [Example 227, N-[(2S,3R)-2-methylpiperidin-3-yl]-6-[6-(trifluoromethyl)imidazo[1,2-a]pyridin-3-yl]pyrazin-2-amine] |  | 92 | EC50 (Mia Paca-2 cells; [2]): 1000 nM
c1cn2ncc(-c3cncc(N[C@@H]4CCCNC4)n3)c2cn1 [Example 251, N-[(3R)-piperidin-3-yl]-6-(pyrazolo[1,5-a]pyrazin-3-yl)pyrazin-2-amine, acetate salt] | 255 | 10 | 
COC[C@@H]1C[C@@H](Nc2cncc(-c3cnc4cc(Cl)ccn34)n2)CN1 [Example 244, 6-(7-chloroimidazo[1,2-a]pyridin-3-yl)-N-[(3R,5S)-5-(methoxymethyl)pyrrolidin-3-yl]pyrazin-2-amine] | 60.3 | 15.9 | 
COc1cc2ncn(-c3cncc(N[C@@H]4CCCNC4)n3)c2cn1 [Example 18, 6-(6-methoxy-3H-imidazo[4,5-c]pyridin-3-yl)-N-[(3R)-piperidin-3-yl]pyrazin-2-amine] | 19.1 | 1.23 | 
N#Cc1ncc(N[C@@H]2CCNC2)nc1-c1cnc2ccccn12 [Example 267, 3-(imidazo[1,2-a]pyridin-3-yl)-5-[(3R)-pyrrolidin-3-ylamino]pyrazine-2-carbonitrile] | 10000 |  | 
N#Cc1ccn2c(-c3cncc(N[C@@H]4C[C@@H]5CN[C@H]4C5)n3)cnc2c1 [Example 162, 3-{6-[(1S,4R,6R)-2-azabicyclo[2.2.1]hept-6-ylamino]pyrazin-2-yl}imidazo[1,2-a]pyridine-7-carbonitrile] | 321 |  | 
CC(Oc1ccn2c(-c3cncc(N[C@@H]4CCCNC4)n3)cnc2c1)C(F)(F)F (stereo partly drawn) [Example 118, N-[(3R)-piperidin-3-yl]-6-[7-(2,2,2-trifluoro-1-methylethoxy)imidazo[1,2-a]pyridin-3-yl]pyrazin-2-amine] |  | 5.27 | EC50 (HeLa cells): 1110 nM
C[C@H]1NCCC[C@@H]1Nc1cncc(-c2cnc3cnccn23)n1 [Example 171, 6-(imidazo[1,2-a]pyrazin-3-yl)-N-[(2R,3S)-2-methylpiperidin-3-yl]pyrazin-2-amine] |  |  | EC50 (HeLa cells): ≥ 10000 nM; percent inhibition (where no Ki data is available) (CHK1 (kinase domain)): 21.7%^
C[C@@H]1NCCC[C@@H]1Nc1cncc(-c2cnc3sccn23)n1 [Example 179, 6-(imidazo[2,1-b][1,3]thiazol-5-yl)-N-[(2S,3S)-2-methylpiperidin-3-yl]pyrazin-2-amine] |  |  | EC50 (HeLa cells): 294 nM; percent inhibition (where no Ki data is available) (CHK1 (kinase domain)): 29.1%^
